Laboratory results reported in patent US12275729B2 (Merck Sharp & Dohme LLC, priority 2017, dated 2025).

What was measured:
[1] = target: T1, IDO1 (Homo sapiens, UniProt P14902); assay: IDO1 Human Whole Blood Assay; assay type: cell-based; parameters: Human whole blood was drawn in sodium heparin coated tubes from healthy internal donors; from tissue; host or cells: human whole blood from healthy donors, stimulated with LPS and IFNγ; details: LPS and IFNγ stimulated
Experimental: IDO1 Human Whole Blood Assay
Compounds to be tested were serially diluted in ten 3-fold steps in DMSO starting from 10 mM. […] LPS and IFNγ was prepared in RPMI to a 10× of final conc. (1000 ng/mL), final concentration is 100 ng/mL.
Human whole blood was drawn in sodium heparin coated tubes from healthy internal donors. 240 μL of blood was transferred to each of the wells of a v-bottom 96 well plate. 30 μL of compound was transferred from intermediate dilution plate, and incubated for 15 min. 30 μL from stimulants was then transferred to blood and mixed thoroughly.
On day 2 isotope labeled standard of kynurenine and tryptophan was made in water at 1Ox concentration and 30 μL was added to the blood at […] final concentration. The assay plates were centrifuged at 300×G for 10 min with no brake to separate plasma from red blood cells. 60 μL of plasma samples was removed without disturbing red blood cells. Plasma was diluted with RPMI in 1:1 ratio and proteins were precipitated out with two volume of Acetonitrile. The plates were centrifuged at 4000×G for 60 min. 20 μL of supernatant was carefully transferred to a 384 well plate contain 40 μL of 0.1% formic acid in water and analyzed by LC/MS/MS.
LC/MS/MS analyses were performed using Thermo Fisher's LX4-TSQ Quantum Ultra system. This system consists of four Agilent binary high-performance liquid chromatography (HPLC) pumps and a TSQ Quantum Ultra triple quadrupole MS/MS instrument. For each sample, 5 μL were injected onto an Atlantis T3 column (2.1 mm×150 mm, […] particle size) from Waters. The mobile phase gradient pumped at 0.8 mL/min was used to elute the analytes from the column at 25° C. […] Mobile phase A consisted of 0.1% formic acid in water. Mobile phase B consisted of 0.1% of formic acid in acetonitrile. Data was acquired in positive mode using a HESI interface. The operational parameters for the TSQ Quantum Ultra instrument were a spray voltage of 4000 V, capillary temperature of 380° C., vaporizer temperature 400° C., shealth gas 60 arbitrary units, Aux gas 20 arbitrary units, tube lens 85 and collision gas 1.2 mTorr. […] The peak area was integrated by Xcalibur Quan software. The ratios between the kynurenine generated in the reaction and 2D6-Kynurenine spiked-in internal standard were used to generate percentage inhibition and IC50 values.

[2] = target: T1, IDO1; assay: IDO1 Cellular Assay in HeLa Cells Stimulated with IFNγ; assay type: cell-based; details: about 48 hours, read-out: Hela IC50

T1 sequence (P14902 whole entry): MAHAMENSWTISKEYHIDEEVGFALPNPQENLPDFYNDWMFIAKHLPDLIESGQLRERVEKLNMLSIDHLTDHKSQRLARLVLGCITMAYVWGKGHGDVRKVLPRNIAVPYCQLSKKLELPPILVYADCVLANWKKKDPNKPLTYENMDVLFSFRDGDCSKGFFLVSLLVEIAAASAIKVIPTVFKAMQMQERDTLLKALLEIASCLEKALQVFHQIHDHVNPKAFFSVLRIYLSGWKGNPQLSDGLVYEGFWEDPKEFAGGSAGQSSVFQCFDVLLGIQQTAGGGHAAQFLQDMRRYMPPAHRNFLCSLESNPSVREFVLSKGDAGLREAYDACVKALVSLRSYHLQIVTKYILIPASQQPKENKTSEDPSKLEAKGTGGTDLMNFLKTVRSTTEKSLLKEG

Row | Structure (SMILES) | IC50 [1] | IC50 [2]
1 | Cc1nc(C(=O)N2CCCc3cc([C@H](C)C(=O)Nc4ccc(F)cn4)ccc32)no1 [Example 65, (2S)-N-(5-fluoropyridin-2-yl)-2-[1-(5-methyl-1,2,4-oxadiazole-3-carbonyl)-1,2,3,4-tetrahydroquinolin-6-yl]propanamide] | 2610 nM | 1.9 nM
2 | CC(C(=O)Nc1ccc(F)cc1)c1ccc2c(c1)CCCN2C(=O)C1CC1(F)F (stereo not drawn) [Example 67, 2-[1-(2,2-difluorocyclopropane-1-carbonyl)-1,2,3,4-tetrahydroquinolin-6-yl]-N-(4-fluorophenyl)propanamide] | 150 nM | 4.1 nM
3 | C[C@H](C(=O)Nc1ccc(F)cc1)c1ccc2c(c1)CCCN2C(=O)C1CCOCC1 [Example 81, (2S)-N-(4-fluorophenyl)-2-[1-(oxane-4-carbonyl)-1,2,3,4-tetrahydroquinolin-6-yl]propanamide] | 99 nM | 4.8 nM
4 | CC(C)NC(=O)N1CCCc2cc([C@H](C)C(=O)Nc3ccc(F)cc3)ccc21 [Example 89, 6-{(2S)-1-[(4-fluorophenyl)amino]-1-oxopropan-2-yl}-N-(propan-2-yl)-3,4-dihydroquinoline-1(2H)-carboxamide] | 38 nM | 3.2 nM
5 | O=C(C1CC1)N1CCCc2cc(C3(C(=O)Nc4ccc(F)cn4)CCC3)ccc21 [Example 96, 1-(1-(cyclopropanecarbonyl)-1,2,3,4-tetrahydroquinolin-6-yl)-N-(5-fluoropyridin-2-yl)cyclobutane-1-carboxamide] | 223 nM | 6.2 nM
6 | O=C(C1CC1)N1CCCc2cc(C3(C(=O)Nc4ccc(F)cc4)CCC3)ccc21 [Example 97, 1-[1-(cyclopropanecarbonyl)-1,2,3,4-tetrahydroquinolin-6-yl]-N-(4-fluorophenyl)cyclobutane-1-carboxamide] | 11 nM | 1.7 nM
7 | O=C(N1CCCc2cc(C3(C(=O)Nc4ccc(F)cc4)CCC3)ccc21)C1(F)CC1 [Example 98, 1-[1-(1-fluorocyclopropane-1-carbonyl)-1,2,3,4-tetrahydroquinolin-6-yl]-N-(4-fluorophenyl)cyclobutane-1-carboxamide] | 361 nM | 3.3 nM
8 | Cc1nc(C(=O)N2CCCc3cc(C4(C(=O)Nc5ccc(F)cc5)CCC4)ccc32)no1 [Example 100, N-(4-fluorophenyl)-1-[1-(5-methyl-1,2,4-oxadiazole-3-carbonyl)-1,2,3,4-tetrahydroquinolin-6-yl]cyclobutane-1-carboxamide] | 90 nM | 1.2 nM
9 | CC1(C(=O)N2CCCc3cc(C4(C(=O)Nc5ccc(F)cc5)CCC4)ccc32)CC1 [Example 104, N-(4-fluorophenyl)-1-[1-(1-methylcyclopropane-1-carbonyl)-1,2,3,4-tetrahydroquinolin-6-yl]cyclobutane-1-carboxamide] | 115 nM | 3.5 nM
10 | O=C(C1COC1)N1CCCc2cc(C3(C(=O)Nc4ccc(F)cc4)CCC3)ccc21 [Example 115, N-(4-fluorophenyl)-1-[1-(oxetane-3-carbonyl)-1,2,3,4-tetrahydroquinolin-6-yl]cyclobutane-1-carboxamide] | 480 nM | 20 nM
11 | Cn1ccc(C(=O)N2CCCc3cc(C4(C(=O)Nc5ccc(F)cn5)CCC4)ccc32)n1 [Example 120, N-(5-fluoropyridin-2-yl)-1-[1-(1-methyl-1H-pyrazole-3-carbonyl)-1,2,3,4-tetrahydroquinolin-6-yl]cyclobutane-1-carboxamide] | 214 nM | 1.4 nM
12 | CC(C(=O)Nc1ccc(F)cc1)c1ccc2c(n1)CCCN2C(=O)[C@H]1CCCO1 (stereo partly drawn) [Example 137, N-(4-fluorophenyl)-2-(5-((R)-tetrahydrofuran-2-carbonyl)-5,6,7,8-tetrahydro-1,5-naphthyridin-2-yl)propanamide] | 29 nM | 12 nM
13 | CC(NC(=O)c1ccc(F)cc1)c1ccc2c(n1)CCCN2C(=O)c1ccn(C)n1 (stereo not drawn) [Example 138, 4-fluoro-N-{1-[5-(1-methyl-1H-pyrazole-3-carbonyl)-5,6,7,8-tetrahydro-1,5-naphthyridin-2-yl]ethyl}benzamide] | 67 nM | 6.3 nM
14 | CC(NC(=O)c1ccc(F)cc1)c1ccc2c(n1)CCCN2C(=O)c1ccccc1Cl (stereo not drawn) [Example 141, N-{1-[5-(2-chlorobenzene-1-carbonyl)-5,6,7,8-tetrahydro-1,5-naphthyridin-2-yl]ethyl}-4-fluorobenzamide] | 26 nM | 1.7 nM
15 | C[C@@H](NC(=O)c1ccc(F)cc1)c1ccc2c(n1)CCCN2C(=O)[C@H]1CCCO1 [Example 145, 4-fluoro-N-[(1R)-1-{5-[(2R)-oxolane-2-carbonyl]-5,6,7,8-tetrahydro-1,5-naphthyridin-2-yl}ethyl]benzamide] | 125 nM | 8 nM
16 | CC(NC(=O)c1ccc(F)cc1)c1ccc2c(n1)CCCN2C(=O)c1cc(Cl)cc(Cl)c1 (stereo not drawn) [Example 149, N-{1-[5-(3,5-dichlorobenzene-1-carbonyl)-5,6,7,8-tetrahydro-1,5-naphthyridin-2-yl]ethyl}-4-fluorobenzamide] | 33 nM | 3.2 nM
17 | CC(NC(=O)c1ccc(F)cc1)c1ccc2c(n1)CCCN2C(=O)c1c(Cl)cccc1Cl (stereo not drawn) [Example 150, N-{1-[5-(2,6-dichlorobenzene-1-carbonyl)-5,6,7,8-tetrahydro-1,5-naphthyridin-2-yl]ethyl}-4-fluorobenzamide] | 1140 nM | 7.3 nM
18 | CC(C(=O)Nc1ccc(F)cc1)c1ccc2c(n1)CCCN2C(=O)C1CCOCC1 (stereo not drawn) [Example 165, N-(4-fluorophenyl)-2-[5-(oxane-4-carbonyl)-5,6,7,8-tetrahydro-1,5-naphthyridin-2-yl]propanamide] | 34 nM | 2.7 nM
19 | N#Cc1cccc(C(=O)N2CCCc3nc(C4(NC(=O)c5ccc(F)cc5)CC4)ccc32)c1 [Example 175, N-{1-[5-(3-cyanobenzene-1-carbonyl)-5,6,7,8-tetrahydro-1,5-naphthyridin-2-yl]cyclopropyl}-4-fluorobenzamide] | 19 nM | 4.9 nM
20 | CC(C)(C(=O)Nc1ccc(Cl)cc1)c1ccc2c(c1)CCCN2C(=O)c1cccc(Cl)c1 [Example 187, 2-[1-(3-chlorobenzene-1-carbonyl)-1,2,3,4-tetrahydroquinolin-6-yl]-N-(4-chlorophenyl)-2-methylpropanamide] | 2040 nM | 4.5 nM
21 | COCCOC(=O)N1CCCc2nc(C(C)NC(=O)c3ccc(Cl)cc3)ccc21 (stereo not drawn) [Example 212, 2-methoxyethyl 6-{1-[(4-chlorobenzene-1-carbonyl)amino]ethyl}-3,4-dihydro-1,5-naphthyridine-1(2H)-carboxylate] | 35 nM | 3 nM
22 | COC(=O)N1CCCc2nc(C(C)NC(=O)c3ccc(Cl)cc3)ccc21 (stereo not drawn) [Example 213, methyl 6-{1-[(4-chlorobenzene-1-carbonyl)amino]ethyl}-3,4-dihydro-1,5-naphthyridine-1(2H)-carboxylate] | 393 nM | 6.3 nM
23 | CC(NC(=O)c1ccc(F)cc1)c1ccc2c(n1)CCCN2Cc1cccc(Cl)c1 (stereo not drawn) [Example 229, N-(1-{5-[(3-chlorophenyl)methyl]-5,6,7,8-tetrahydro-1,5-naphthyridin-2-yl}ethyl)-4-fluorobenzamide] | 245 nM | 3.5 nM
24 | CCn1ccc(N2CCCc3cc(C4(C(=O)Nc5ccc(F)cn5)CCC4)ccc32)n1 [Example 232, 1-[1-(1-ethyl-H-pyrazol-3-yl)-1,2,3,4-tetrahydroquinolin-6-yl]-N-(5-fluoropyridin-2-yl)cyclobutane-1l-carboxamide] | 557 nM | 5.4 nM
25 | Cc1cccc(N2CCCc3nc(C4(NC(=O)c5ccc(F)cc5)CC4)ccc32)n1 [Example 245, 4-fluoro-N-(1-(5-(6-methylpyridin-2-yl)-5,6,7,8-tetrahydro-1,5-naphthyridin-2-yl)cyclopropyl)benzamide] | 2580 nM | 2.7 nM
26 | Cc1nccc(N2CCCc3nc(C4(NC(=O)c5ccc(Cl)cc5)CC4)ccc32)n1 [Example 249, 4-chloro-N-(1-(5-(2-methylpyrimidin-4-yl)-5,6,7,8-tetrahydro-1,5-naphthyridin-2-yl)cyclopropyl)benzamide] | 63 nM | 0.7 nM
27 | Cc1nccc(N2CCCc3nc(C(C)NC(=O)c4ccc(Cl)cc4)ccc32)n1 (stereo not drawn) [Example 250, 4-chloro-N-(1-(5-(2-methylpyrimidin-4-yl)-5,6,7,8-tetrahydro-1,5-naphthyridin-2-yl)ethyl)benzamide] | 32 nM | 2 nM
